# Test results: PubChem BioAssay (NCI)
#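 Method: 48-hour compound exposure of cells in 96-well plates, five concentrations, linear interpolation of endpoints. GI50 = concentration required for 50% inhibition of growth. TGI: concentration producing complete growth inhibition.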
# Assays:
# Assay in all cases: DTP human tumour cell line panel, 48 h
# SK-MEL-2 melanoma = test system: SK-MEL-2 melanoma
# NCI-H226 lung = test system: NCI-H226 lung
# NCI/ADR-RES ovarian = test system: NCI/ADR-RES ovarian
# T-47D breast = test system: T-47D breast
# SK-MEL-5 melanoma = test system: SK-MEL-5 melanoma
# EKVX NSCLC = test system: EKVX NSCLC
# NCI-H522 lung = test system: NCI-H522 lung
# SK-MEL-28 melanoma = test system: SK-MEL-28 melanoma
# HCT-116 colon = test system: HCT-116 colon
# RPMI-8226 leukemia = test system: RPMI-8226 leukemia
# DU-145 prostate = test system: DU-145 prostate
# SF-268 CNS = test system: SF-268 CNS
# SN12C renal = test system: SN12C renal
# IGROV1 ovarian = test system: IGROV1 ovarian
# 786-0 renal = test system: 786-0 renal
# PC-3 prostate = test system: PC-3 prostate
# RXF 393 renal = test system: RXF 393 renal
# NCI-H460 lung = test system: NCI-H460 lung
# HS 578T breast = test system: HS 578T breast
# OVCAR-5 ovarian = test system: OVCAR-5 ovarian
# SF-295 CNS = test system: SF-295 CNS
# M14 melanoma = test system: M14 melanoma
# K-562 leukemia = test system: K-562 leukemia
# UACC-62 melanoma = test system: UACC-62 melanoma
# OVCAR-4 ovarian = test system: OVCAR-4 ovarian
# CCRF-CEM leukemia = test system: CCRF-CEM leukemia
# HOP-92 NSCLC = test system: HOP-92 NSCLC
# CAKI-1 renal = test system: CAKI-1 renal
# SNB-75 CNS = test system: SNB-75 CNS
# ACHN renal = test system: ACHN renal
# UACC-257 melanoma = test system: UACC-257 melanoma
# LOX IMVI melanoma = test system: LOX IMVI melanoma
# MDA-MB-231 breast = test system: MDA-MB-231 breast
# MCF7 breast = test system: MCF7 breast
# A498 renal = test system: A498 renal
# HCC-2998 colon = test system: HCC-2998 colon
# UO-31 renal = test system: UO-31 renal
# SW-620 colon = test system: SW-620 colon
# MALME-3M melanoma = test system: MALME-3M melanoma
# OVCAR-8 ovarian = test system: OVCAR-8 ovarian
# SF-539 CNS = test system: SF-539 CNS
# A549 NSCLC = test system: A549 NSCLC
# HT29 colon = test system: HT29 colon
# SK-OV-3 ovarian = test system: SK-OV-3 ovarian
# HCT-15 colon = test system: HCT-15 colon
# KM12 colon = test system: KM12 colon
# NCI-H23 lung = test system: NCI-H23 lung
# BT-549 breast = test system: BT-549 breast
# HL-60(TB) leukemia = test system: HL-60(TB) leukemia
# TK-10 renal = test system: TK-10 renal
# OVCAR-3 ovarian = test system: OVCAR-3 ovarian
# HOP-62 NSCLC = test system: HOP-62 NSCLC
# SNB-19 CNS = test system: SNB-19 CNS
# COLO 205 colon = test system: COLO 205 colon
# U251 CNS = test system: U251 CNS
structure (smiles),measurement,setting,value
C=C(CN1CCN(c2ccc(Cl)cc2F)CC1)c1ccc(C(=O)Nc2ccccc2N)cc1,GI50,SK-MEL-2 melanoma,6.95 µM
same,TGI,SK-MEL-2 melanoma,> 100 µM
same,GI50,NCI-H226 lung,3.29 µM
same,TGI,NCI-H226 lung,> 100 µM
same,GI50,NCI/ADR-RES ovarian,1.97 µM
same,TGI,NCI/ADR-RES ovarian,5.5 µM
same,TGI,T-47D breast,> 100 µM
same,GI50,SK-MEL-5 melanoma,2.3 µM
same,TGI,SK-MEL-5 melanoma,> 22.4 µM
same,GI50,EKVX NSCLC,11.5 µM
same,TGI,EKVX NSCLC,> 100 µM
same,GI50,NCI-H522 lung,2.19 µM
same,TGI,NCI-H522 lung,5.95 µM
same,GI50,SK-MEL-28 melanoma,> 26.8 µM
same,TGI,SK-MEL-28 melanoma,> 100 µM
same,GI50,HCT-116 colon,1.85 µM
same,TGI,HCT-116 colon,> 94.2 µM
same,GI50,RPMI-8226 leukemia,0.628 µM
same,TGI,RPMI-8226 leukemia,3.21 µM
same,GI50,DU-145 prostate,3.14 µM
same,TGI,DU-145 prostate,> 100 µM
same,GI50,SF-268 CNS,2.61 µM
same,TGI,SF-268 CNS,> 100 µM
same,GI50,SN12C renal,1.87 µM
same,TGI,SN12C renal,> 100 µM
same,GI50,IGROV1 ovarian,1.16 µM
same,TGI,IGROV1 ovarian,14.8 µM
same,GI50,786-0 renal,2.28 µM
same,TGI,786-0 renal,> 100 µM
same,GI50,PC-3 prostate,1.55 µM
same,TGI,PC-3 prostate,> 100 µM
same,GI50,RXF 393 renal,0.867 µM
same,TGI,RXF 393 renal,12.4 µM
same,GI50,NCI-H460 lung,3.23 µM
same,TGI,NCI-H460 lung,> 100 µM
same,GI50,HS 578T breast,3.38 µM
same,TGI,HS 578T breast,> 70.6 µM
same,GI50,OVCAR-5 ovarian,51.7 µM
same,TGI,OVCAR-5 ovarian,> 100 µM
same,GI50,SF-295 CNS,3.16 µM
same,TGI,SF-295 CNS,> 100 µM
same,GI50,M14 melanoma,2.03 µM
same,GI50,K-562 leukemia,1.12 µM
same,TGI,K-562 leukemia,> 100 µM
same,GI50,UACC-62 melanoma,2.42 µM
same,TGI,UACC-62 melanoma,> 92.1 µM
same,TGI,OVCAR-4 ovarian,> 66.6 µM
same,GI50,CCRF-CEM leukemia,0.524 µM
same,TGI,CCRF-CEM leukemia,> 100 µM
same,GI50,HOP-92 NSCLC,1.57 µM
same,TGI,HOP-92 NSCLC,> 27.4 µM
same,GI50,CAKI-1 renal,2.72 µM
same,TGI,CAKI-1 renal,> 100 µM
same,GI50,SNB-75 CNS,11.4 µM
same,TGI,SNB-75 CNS,> 46.1 µM
same,GI50,ACHN renal,4.02 µM
same,TGI,ACHN renal,> 100 µM
same,GI50,UACC-257 melanoma,1.59 µM
same,TGI,UACC-257 melanoma,48.6 µM
same,GI50,LOX IMVI melanoma,3 µM
same,TGI,LOX IMVI melanoma,8.43 µM
same,GI50,MDA-MB-231 breast,0.536 µM
same,TGI,MDA-MB-231 breast,3.64 µM
same,GI50,MCF7 breast,3.08 µM
same,TGI,MCF7 breast,> 100 µM
same,GI50,A498 renal,3.03 µM
same,TGI,A498 renal,> 80.4 µM
same,GI50,HCC-2998 colon,3.84 µM
same,TGI,HCC-2998 colon,> 60.5 µM
same,GI50,UO-31 renal,1.1 µM
same,TGI,UO-31 renal,> 25.1 µM
same,GI50,SW-620 colon,3.06 µM
same,TGI,SW-620 colon,> 100 µM
same,GI50,MALME-3M melanoma,1.92 µM
same,TGI,MALME-3M melanoma,> 100 µM
same,GI50,OVCAR-8 ovarian,3.4 µM
same,TGI,OVCAR-8 ovarian,> 100 µM
same,GI50,SF-539 CNS,2.02 µM
same,TGI,SF-539 CNS,> 52.8 µM
same,GI50,A549 NSCLC,2.56 µM
same,TGI,A549 NSCLC,> 30.5 µM
same,GI50,HT29 colon,2.96 µM
same,TGI,HT29 colon,> 100 µM
same,TGI,SK-OV-3 ovarian,> 25.7 µM
same,GI50,HCT-15 colon,2.16 µM
same,TGI,HCT-15 colon,> 100 µM
same,GI50,KM12 colon,2.26 µM
same,TGI,KM12 colon,> 59.7 µM
same,GI50,NCI-H23 lung,3.13 µM
same,TGI,NCI-H23 lung,> 100 µM
same,GI50,BT-549 breast,2.99 µM
same,TGI,BT-549 breast,> 65.3 µM
same,GI50,HL-60(TB) leukemia,0.794 µM
same,GI50,TK-10 renal,3.53 µM
same,TGI,TK-10 renal,> 100 µM
same,GI50,OVCAR-3 ovarian,2.29 µM
same,TGI,OVCAR-3 ovarian,> 100 µM
same,GI50,HOP-62 NSCLC,3.42 µM
same,TGI,HOP-62 NSCLC,27.8 µM
same,TGI,SNB-19 CNS,> 34.3 µM
same,GI50,COLO 205 colon,16.7 µM
same,TGI,COLO 205 colon,> 95.3 µM
same,GI50,U251 CNS,1.8 µM
same,TGI,U251 CNS,21.5 µM
